Laboratory results reported in patent US8895698B2, “Binding partners of antibodies specific for dendritic cell antigens” (The Corporation of the Trustees of the Order of the Sisters …, priority 2004, dated 2014).

Key:
[1] = system: CMRF44Ab; assay: ELISA binding of peptide phage clones to CMRF44Ab; conditions: 12-mer phage libraries, confirmed by FACS blocking of CMRF44Ab binding to cell surface
Protocol: (§1) Peptide mimics were isolated from a phage display library using a library purchased from New England Biolabs called the PhD-12 Phage Display Peptide Library Kit (Cat No. #E8110S). The PhD-12 Phage Display Peptide Library Kit is based on a combinatorial library of random peptide 12-mers fused to a minor coat protein (pIII) of M13 phage. […] The library consists of ˜2.7×10^9 electroporated sequences, amplified once to yield ˜55 copies of each sequence in 10 μl of the supplied phage. The library is usually panned 3-4 times on the subject of study (usually antibody, but can use receptors, ligands etc.) with increasing stringency of washing at each step followed by analysis of individual clones for a consensus sequence binding to the test subject.
(§2) The consensus sequence of any peptides isolated from the library were be determined according to methods known to a person skilled in the art. ELISAs were then used to determine the binding of individual peptide phage clones or synthetic peptides (with or without repeats of the consensus sequence) to the original target (FIG. 1). Competitive binding assays were also used and analysed by FACS to determine true binding of the peptide sequences to the binding site of the target compared with the “natural” ligand or epitope (FIG. 2). Sequence analysis of the consensus sequence can determine what type of ligand is binding to the target or could give a true epitope, which may be used for database searches to find possible full-length sequences.
A consensus peptide sequence was identified for peptides which bind to CMRF44Ab from the 12-mer libraries using ELISA. Subsequent FACS analysis of phage peptide blocking of binding of CMRF44Ab to the cell surface also confirmed the peptide sequence. The peptide sequence appeared to be constrained to the N-terminus and the best sequence was AQKYQ (SEQ ID NO: 2) with apparent strong conservation at 1st, 3rd and 5th residues. A family of sequences were also identified and included ALKYQ (SEQ ID NO: 4), ALKEQ (SEQ ID NO: 5) and APKQQ (SEQ ID NO: 3). Further repeat panning of PhD-7 library was carried out to confirm the peptide sequence and identify other possible CMRF44 peptide antigen mimic sequences. […] Also, 3 rounds of repeat panning was carried out on combined 7-mer and 12-mer libraries (pooled together) with acid elution. Several clones sequences as well as pool of 3 round eluate. Results for CMRF-44 show an enrichment of the clone: ALKYQTGMPQSM (SEQ ID NO: 6) in both individual clones and the main strongest sequence in the pooled 3rd round eluate (FIG. 4).

[2] = system: CMRF44Ab; assay: Repeat panning of combined 7-mer and 12-mer phage peptide libraries on CMRF44Ab, sequencing of 3rd round clones and pooled eluate; type: binding; conditions: 3 rounds, combined 7-mer and 12-mer libraries, acid elution; individual clones and pooled 3rd round eluate (FIG. 4)
Source text: FIG. 4 is a graphical representation of sequence results of 3rd round combined 7 and 12-mer phage peptide library panning (CMRF44Ab).
as §1
A consensus peptide sequence was identified for peptides which bind to CMRF44Ab from the 12-mer libraries using ELISA. Subsequent FACS analysis of phage peptide blocking of binding of CMRF44Ab to the cell surface also confirmed the peptide sequence. The peptide sequence appeared to be constrained to the N-terminus and the best sequence was AQKYQ (SEQ ID NO: 2) with apparent strong conservation at 1st, 3rd and 5th residues. […]

[3] = system: CMRF44 scFv; assay: FACS competitive binding: peptide blocking of CMRF44 scFv binding to natural antigen on KM-H2 cells; type: cell-based; conditions: 5-mer peptide alone, KM-H2 cells (FIG. 22)
Source text: (§3) FIG. 22 is a graphical representation of FACS data showing binding of CMRF44Ab and scFv binding to KM-H2 cells and blocking of binding to natural antigen by competition with peptide mimic.
as §2

[4] = system: CMRF44Ab; assay: FACS competitive binding: peptide blocking of CMRF44Ab binding to natural antigen on KM-H2 cells; type: cell-based; conditions: 5-mer peptide alone, KM-H2 cells (FIG. 22)
Source text: as §3, §2

Row | Substance | consensus peptide sequence binding to CMRF44Ab [1] | enrichment of clone in panning [2] | blocking of the engineered CMRF44 scFv [3] | blocking of CMRF44Ab [4]
1 | ALKEQ | identified |  |  | 
2 | ALKYQ | identified |  |  | 
3 | ALKYQTGMPQSM [12-mer phage display peptide clone] |  | enrichment |  | 
4 | APKQQ | identified |  |  | 
5 | AQKYQ | best sequence |  | blocking | blocking
